Data reported in patent US9259389B2, “Pharmaceutical oral dosage form containing a synthetic oligosaccharide” (ENDOTIS PHARMA, priority 2009, dated 2016).
Like-named read-outs stand apart in the source and are kept apart here. Values belong to the compound of their own block, whether it stands above or below them.

Test: Bioavailability after Direct Intra-Duodenal Infusion (DIDI) administration in rat
Type: in vivo
Conditions: for bioavailability: female, Wistar Han, plasma, other: direct intra-duodenal infusion (DIDI), read-out: DIDI (bioavailability F after Direct Intra-Duodenal Infusion)
Text: Pharmacokinetic Study after Direct Intra-Duodenal Injection:
Direct Intra-Duodenal Infusion (DIDI) has been performed in fasted female Wistar Han rats (175-250 g) to determine the ability of oligosaccharide compounds, in a formulation according to the present invention, to cross the intestinal barrier.
Animals were anesthetized with isoflurane gas in a closed induction chamber and held under anesthesia (3% isoflurane and 2.4 l/min rate) until sacrifice at the end of the experiment. After shaving, a laparotomy was performed and the duodenum exposed. A small pore was created upper the bile duct into the duodenum using a high temperature cautery fine tip. A flexible catheter was inserted into the duodenal lumen through the hole and the upper part of the duodenum was closed and the catheter immobilized by clipping with a forceps. A syringe containing the formulation according to the present invention and diluted as indicated below was placed onto the flexible catheter and the syringe's plunger was slowly depressed releasing the material into the duodenum. Immediately after, a 0.9% NaCl solution was injected (50 μl) to ensure complete compound administration. At this step, peritoneal cavity and skin of the rats were closed using silk suture.
The dose of the oligosaccharide compound according to the present invention to be administrated is 2 mg/kg of body weight or 4 mg/kg of body weight. Therefore, each rat received the quantity of the formulation corresponding to this dosage (i.e. for the dose of 2 mg/kg of body weight, 0.4 mg per rat of 200 g, corresponding to 40 mg of formulation for a formulation containing 1% by weight of the oligosaccharide), diluted extemporaneously at ambient temperature in water for injection with a total volume of administration of 500 μl.
Sometimes, it can be advantageous to first heat the formulation to 37° C. for 15 min under agitation to optimize dilution of the formulation.
Blood samples were collected over a certain period of time (in general 0.25; 0.5; 1; 1.5; 2; 2.5 h) and plasma analyzed as described below.
Quantification of the Compounds in Plasma:
Plasma concentration of the synthetic oligosaccharide (μg compound/mL plasma) was determined using a bioassay based on the factor Xa inhibitory activity of the compounds in the presence of antithrombin (AT). First, AT was added in excess to the plasma sample, allowing 1/1 oligosaccharide/AT complex formation. Factor Xa was then added in excess, and remaining active factor Xa was determined by spectrophotometry at 405 nm using a chromogenic reagent as a substrate. A dose-response curve was established for each compound to be quantified in rat plasma.
Pharmacokinetic Study after Intravenous Administration: […]

Compound: CO[C@H]1O[C@H](COS(=O)(=O)O)[C@@H](O[C@@H]2O[C@@H](C(=O)O)[C@@H](O[C@H]3O[C@H](COS(=O)(=O)O)[C@@H](O[C@@H]4O[C@H](C(=O)O)[C@@H](O[C@H]5O[C@H](COS(=O)(=O)O)[C@@H](O)[C@H](O)[C@H]5NS(=O)(=O)O)[C@H](O)[C@H]4O)[C@H](OS(=O)(=O)O)[C@H]3NS(=O)(=O)O)[C@H](O)[C@H]2OS(=O)(=O)O)[C@H](O)[C@H]1NS(=O)(=O)O [Fondaparinux, reference compound]
- bioavailability (active: sodium fondaparinux, dose delivered 2 mg/kg, AUC0-2 DIDI vs intravenous): 3%

Compound: CCCCOC1C(COS(=O)(=O)[O-])OC(OC2C(OC)C(OC)C(OC3C(COS(=O)(=O)[O-])OC(OC4COC(OC5C(COS(=O)(=O)[O-])OC(OC)C(OS(=O)(=O)[O-])C5O)[C@H](OCC(=O)[O-])C4OC)C(OS(=O)(=O)[O-])C3OS(=O)(=O)[O-])OC2(CC)C(=O)[O-])C(N)C1OCCCC.[Na+].[Na+].[Na+].[Na+].[Na+].[Na+].[Na+].[Na+] (stereo partly shown) [Sodium salt of 122 without formulation]
- bioavailability (active: sodium salt of compound 122, AUC0-2 DIDI vs intravenous): 2.5 ± 1%

Compound: CCC1(C(=O)[O-])OC(OC2C(COS(=O)(=O)[O-])OC(OC3COC(OC4C(COS(=O)(=O)[O-])OC(OC)C(OS(=O)(=O)[O-])C4OC)[C@H](OCC(=O)[O-])C3OC)C(OS(=O)(=O)[O-])C2OS(=O)(=O)[O-])C(OC)C(OC)C1OC1OC(COS(=O)(=O)[O-])C(OCCOCCOCCOCCN)C(OC)C1OC.[Na+].[Na+].[Na+].[Na+].[Na+].[Na+].[Na+].[Na+] (stereo partly shown) [Sodium salt of 147 without formulation]
- bioavailability (active: sodium salt of compound 147, AUC0-2 DIDI vs intravenous): 1 ± 10%

- DIDI (bioavailability F after Direct Intra-Duodenal Infusion) (active: Fondaparinux Benzathine, 2 mg/kg, AUC0-2 DIDI vs intravenous): 2 ± 1%
Compound: Fondaparinux Benzathine
